Measured values: US20260207616A1, “COMBINATION THERAPIES FOR TREATMENT OF HEARING DISORDERS” (GATEWAY BIOTECHNOLOGY, INC., priority 2023, published 2026)

Test system: tinnitus positive mice
Test: go/no-go trials, sound-based avoidance detection (SBAD) in noise-induced tinnitus mice
Assay type: in vivo
Conditions: intraperitoneal injection; for dosage reached before the agent alone was effective in treating the animals tinnitus: single agent
Description: With reference to FIGS. 1A-1D, single drug treatment of tinnitus is evaluated using the go/no-go methodology further elaborated upon in Example 4. With reference to FIGS. 2A-2B, multi drug treatment of tinnitus is evaluated using the go/no-go methodology further elaborated upon in Example 4. […] Using a shuttle box divided into two compartments, mice were trained to cross from side to side with sound cues in the “Go” trials and remain still in the absence of sound in the “No-Go” trials for 15 days. […] The sound cues were randomly played as white noise or narrow-band noise at 8,10,12.5,16, and 29 kHz with sound intensities randomly at 75, 80, or 85 dB. […] Additionally, a hurdle was added on training 11 to reinforce the training. After the 15th training day, mice were tested for 3 days to obtain a baseline score to be compared after noise exposure, as well as retraining for 3 days. Following the successful completion of training so that mice reached a high percentage of success in the trials, the mice were exposed to a noise-induced trauma for tinnitus over a two day period. To ensure that the mice still have their hearing, one ear was protected with an ear plug, while the other ear was exposed to the noise. The mice were placed in a sound booth where they were exposed to 120 dB broadband noise at 4-25 kHz for two hours. Following the noise exposure, the mice were housed for one month, and then tested to see if they have developed tinnitus. In these testing periods, the mice were tested for three days in the shuttle boxes, where they underwent the Go and No-Go trials, however in the No-Go trials the mice were not shocked, as it is expected that mice with tinnitus would cross compartments in the absence of a sound cue. The mice were continued to be shocked in the Go trials in order to ensure that they have retained their hearing and can hear the sound cues. […] To insure there is a significant difference in the No-Go trial scores, chi-square tests were completed comparing the post-noise exposure tests to the baseline tests. However, if tinnitus is not present in the mice, tests were done after waiting one more month, and another if needed. […] The Go and No-Go scores for the tests were compared using chi-square tests in Social Science Statistics and JASP. The chi-square tests were used first to determine whether mice were tinnitus positive by comparing the No-Go baseline scores pre-noise exposure to the No-Go post-noise exposure scores, with a significant difference (p-value<0.05) in at least 2 of the tests indicating a tinnitus positive mouse. Following this conclusion, the mice were tested accordingly to determine if their No-Go scores could be improved by different drug doses and combinations. […] The No-Go scores at 3 months post-noise exposure were compared to baselines to assess for tinnitus. Mice had significant decreases on all 3 days of testing. This indicates these mice had tinnitus. One or more mice is a control animal. In looking at the Go scores for the tinnitus animals when tested with the specified drugs, mice had significant decreases in their scores when. […] In contrast, a lack of change in the No-Go scores indicates the first and/or second agent was not effective in treating the animal's tinnitus, and decrease in the score may indicate that the animal's tinnitus was worsened.

CCOC(=O)C1=C(COCCN)NC(C)=C(C(=O)OC)C1c1ccccc1Cl (centres unmarked) [AML, amlodipine]
correct percentage result in the no-go trial (AML 5 mg/kg): ~90%
correct percentage result in the no-go trial (AML 8 mg/kg): ~95%

NC(=O)N1c2ccccc2C=Cc2ccccc21 [CBZ, carbamazepine]
correct percentage result in the no-go trial (CBZ 5 mg/kg, within a margin of error of the saline dosed mice): less than 70%
correct percentage result in the no-go trial (CBZ 8 mg/kg): less than 80%

CCC1(C)CC(=O)NC1=O (centres unmarked) [ESM, ethosuximide]
correct percentage result in the no-go trial (ESM 300 mg/kg): ~70%

COCCOC(=O)C1=C(C)NC(C)=C(C(=O)OC(C)C)C1c1cccc([N+](=O)[O-])c1 (centres unmarked) [NMDP, nimodipine]
correct percentage result in the no-go trial (NMDP 30 mg/kg): ~95%
correct percentage result in the no-go trial (NMDP 50 mg/kg): ~95%
dosage reached before the agent alone was effective in treating the animals tinnitus: about 30 mg/kg

COc1ccc2cc1Oc1ccc(cc1)C[C@H]1c3cc(c(OC)cc3CCN1C)Oc1c(OC)c(OC)cc3c1[C@H](C2)N(C)CC3 [TET, tetrandrine]
correct percentage result in the no-go trial (TET 60 mg/kg): ~90%
correct percentage result in the no-go trial (TET 90 mg/kg): ~95%
dosage reached before the agent alone was effective in treating the animals tinnitus: about 30 mg/kg
